Source: publication PMC2360547 (British Journal of Cancer, 2006)
Values joined by “and” are separate entries in the source; they are usually repeats but may differ in a detail not shown here. Equal values may be shown once. “Also recorded” adds a separate entry of the source. Read-outs that look alike come from different tables or passages of the source.

What was measured:
[1] = parameters: method as in Propper et al, 2001; conditions: Phase I trial, oral; ref Propper et al, 2001; cited from earlier work
[2] = test system: acute myeloid leukaemia (AML); parameters: method as in Stone et al, 2005; conditions: ref Stone et al, 2005, cited from earlier work
[3] = parameters: method as in Novartis internal report; conditions: ref Novartis internal report; cited from earlier work
[4] = test system: patients with advanced cancer; conditions: ref Propper et al, 2001, cited from earlier work
[5] = test system: multidrug resistant cells (R100; CCRF CEM cells resistant to 100 ng ml−1 vinblastine); conditions: for Percent of potential maximum reversal of multidrug resistance: plasma from patients receiving midostaurin 75 mg t.i.d.
Experimental: This was determined using a previously reported method that assessed the capacity of cremophor EL to inhibit MDR^10. Briefly, the ability of the patient's plasma to modulate ex vivo intracellular daunorubicin accumulation in multidrug resistant cells (R100; CCRF CEM cells resistant to 100 ng ml^−1 vinblastine) was measured using fluorescence detection. The activity of 20 μg ml^−1 Valspodar (PSC833, an inhibitor of P-glycoprotein) added to the patient's prestudy plasma sample defined 100% reversal ([…] of daunorubicin). […] The modulating ability of day 29 plasma samples was determined relative to this. All assays were performed in triplicate. Blank plasma was spiked with 1.0 μl ml^−1 cremophor EL and run as an inter-assay control.

[6] = test system: patients with metastatic melanoma; assay: Phase IIA clinical trial: safety and toxicity; format: in vivo, human
Experimental: Disease sites were re-evaluated by clinical examination monthly or CT every 2 months, or more frequently if disease progression was suspected.
(§1) It was planned to recruit 14 patients with disease suitable for biopsy as the first cohort. […] If at least one response occurred, a further 13 patients (not necessarily with disease suited for biopsy) would be recruited. Response and toxicity were assessed using WHO criteria.

metastatic melanoma = assay: Phase IIA clinical trial: tumour response, survival, performance status; format: in vivo, human; parameters: key to Best response: PD: progressive disease; SD: stable disease (<25% increase overall diameter of any lesion; no new lesions, after at least 4 weeks); NA: not assessable
Excerpt: There was no limit on the amount of prior therapy, but no prior chemotherapy or immunotherapy was permitted in the 4 weeks before study entry. Patients with CNS metastases were eligible. At least the first 14 patients entered were also required to have at least two lesions suitable for excision biopsy (skin, subcutaneous metastases). Written informed consent was obtained from all patients and the protocol was approved by the Human Research Ethics Committees of the participating institutions.
This fixed dose schedule was calculated from the Phase I study, in which higher single daily doses were associated with more GIT toxicity.
Patients were reviewed for safety and efficacy of midostaurin weekly for the first month, and then on a monthly basis, or more frequently where symptoms warranted. Disease sites were re-evaluated by clinical examination monthly or CT every 2 months, or more frequently if disease progression was suspected.
as §1

PKC = test system: PKC
Experimental: Tumour biopsies were immediately frozen in liquid nitrogen and stored at −70°C until analysis. Heparinised blood (10 ml) was collected predose and at day 28.
Tumours were powdered in liquid nitrogen and homogenised on ice using an Ultra-Turrax in a buffer containing 20 mM HEPES, pH 7.4, 2 mM EDTA, 25 mM β-glycerophosphate, 0.2 mM DTT, 10 μg ml^−1 leupeptin, 10 μg ml^−1 aprotinin, 1 μg ml^−1 pepstatin, 1 μM sodium orthovanadate and 0.5 mM PMSF. Extracts were then sonicated in an ice cold sonicating bath for 5 min before centrifugation at 1000 g for 5 min to remove cellular debris. Supernatants were centrifuged at 50 000 g for 15 min to separate cytosolic (supernatant) and particulate (pellet) fractions. The supernatant was kept as ‘cytosolic’ fraction. The pellet was further extracted by resuspension in the original lysis buffer including 1% NP-40. Following sonication for 5 min on ice, the extract was centrifuged at 50 000 g for 15 min. The supernatant from this spin (which derived from the original pellet) was kept as the ‘particulate’ fraction. All steps were performed at 4°C or on ice.
The protein concentrations of the cytosolic and particulate fractions were measured after TCA precipitation using the Dc protein assay kit (Bio-Rad).
Intratumoral total PKC activity was measured in cytosolic and particulate fractions using protamine sulphate as the substrate, following the method of a validated assay ([Budworth and Gescher, 1995]). The PKC assay was performed with 4–5 μl of the cytosol or particulate extract (2–50 μg protein) in a total reaction volume of 200 μl, including 200 μg ml^−1 protamine sulphate, 150 μM (γ-^32P)ATP (200 c.p.m. pmol^−1) in a buffer containing 20 mM Tris-HCl, pH 7.4, 10 mM magnesium acetate and 0.5 mM EGTA. The reaction was terminated after 6–7 min (30°C) by spotting 35 μl of the mix onto P81 phosphocellulose paper, followed by washing in 75 mM phosphoric acid. Bound, phosphorylated protamine sulphate was quantitated by scintillation counting of the phosphocellulose papers. Protein kinase C activity was determined by phosphate incorporation into protamine sulphate and expressed as picomolar of phosphate transferred min mg^−1 protein. Measurements were performed in triplicate. Each patient's pretreatment and day 28 biopsies were processed together and analysed in the same assay run. Up to six patients’ samples could be analysed in one day to minimise interassay variability.

PKCα = test system: PKCα; parameters: method as in Fabbro et al, 2000; conditions: ref Fabbro et al, 2000; cited from earlier work
[7] = 20 μg ml−1 added to pretreatment plasma, 100% = 20 μg ml−1 Valspodar
[8] = one patient resistant to midostaurin with abundance of PKCξ

## CO[C@@H]1[C@H](N(C)C(=O)c2ccccc2)C[C@H]2O[C@]1(C)n1c3ccccc3c3c4c(c5c6ccccc6n2c5c31)C(=O)NC4 [Midostaurin, N-benzoyl-staurosporine]
[1]
  Elimination t1/2, range: 22 to 96 h
  Estimated median elimination t1/2: 38.4 h
[2]; 225 mg day−1 in AML
  Tolerability: well-tolerated
[2]
  AML patients with a 50% reduction in bone marrow blast cells: 25%
  AML patients with a 50% reduction of peripheral blood blast cells: 70%
[3]
  Plasma protein binding: 99%
[4]; for 4 months on midostaurin
  Response in two patients with cholangiocarcinoma: one had stable disease and one a partial response
[4]; oral, 12.5–300 mg day−1
  MTD: not reached
[4]; oral, 225–300 mg day−1 (grade 3 in 3)
  Patients with nausea/vomiting: 15 out of 16
[4]; oral, 225–300 mg day−1
  Patients with grade 2 diarrhoea: six out of 16
[5]; [7]
  Percent of potential maximal reversal of multidrug resistance, mean: 40%
  Percent of potential maximal reversal of multidrug resistance, range: 14–64%
[5]; 10 out of 12 patients
  Percent of potential maximum reversal of multidrug resistance: < 10%
[5]; all 12 patients
  Percent of potential maximum reversal of multidrug resistance: < 20%
[6]; 17 patients
  Patients with anaemia: 12 patients
  Patients with anaemia reaching grade 2: five
[6]; 17 patients, 75 mg p.o. t.i.d.
  Patients requiring dose modification for nausea or vomiting: Two
[6]; 17 patients, one of Grade 2 severity
  Patients with hyperglycemia: Four
[6]; 17 patients, only one reached grade 2
  Patients with elevated liver enzymes (alanine transaminase or aspartate transaminase) possibly linked to therapy: four
[6]; seven out of 17 patients, 75 mg p.o. t.i.d.
  Patients who discontinued owing to nausea, vomiting, diarrhoea and/or fatigue possibly related to study drug: 41%
Metastatic melanoma; 17 patients, 75 mg p.o. t.i.d.
  Median survival: 43 days
  Survival, range: 8 to 113 days
Metastatic melanoma; 17 patients, midostaurin 75 mg p.o. t.i.d.
  Tumour response: No tumour responses were seen; also recorded: No patient obtained a tumour response
Metastatic melanoma; eight patients, on study
  Patients with no change of ECOG performance status: 47%
Metastatic melanoma; fourteen out of 17 patients, 75 mg p.o. t.i.d.
  Patients with progressive disease: 82%
Metastatic melanoma; individual patients with stable disease, midostaurin 75 mg p.o. t.i.d.
  Duration of stable disease (best response duration): 50 days and 85 days
Metastatic melanoma; individual patients, midostaurin 75 mg p.o. t.i.d., WHO criteria
  Best response: PD and SD (2×)
Metastatic melanoma; nine patients, on study
  Patients with worsening of ECOG performance status: 53%
Metastatic melanoma; two out of 17 patients, 75 mg p.o. t.i.d.
  Patients with stable disease: 12%
PKC; 10 μM added to melanoma biopsies from nontrial patients
  Effect on phosphorylation of protamine sulphate: inhibited phosphorylation
PKC; day 28 tumour biopsy, in seven out of nine patients
  Reduction of cytosolic PKC activity compared to pretreatment biopsy: 7–91%
PKC; [8]
  Change of cytosolic PKC activity: unchanged
  Increase in particulate PKC activity: 65%
PKC; patient 10, day 28 (day 0: 19.1%)
  Percentage of total PKC activity present in the particulate fraction: 15.4%
PKC; patient 11, day 28 (day 0: 15.7%)
  Percentage of total PKC activity present in the particulate fraction: 11.1%
PKCα
  IC50: 0.022 µM
